From PMC6494879, “Drug resistance emergence in macaques administered cabotegravir long-acting for pre-exposure prophylaxis during acute SHIV infection” (Nature Communications, 2019)

How the values were obtained:
[1] = test system: SIV integrase WT (SIV IN RTV pseudovirus); test: organism not typed; type: cell-based; conditions: for EC50: HEK293; for fold-change relative to wild type integrase: WT SIV integrase
[2] = test system: SIV integrase E92Q (SIV IN RTV pseudovirus); type: cell-based; conditions: E92Q SIV integrase mutant
[3] = test system: SIV integrase G140R (SIV IN RTV pseudovirus); test: organism not typed; type: cell-based; conditions: for EC50: HEK293
[4] = test system: SIV integrase E92Q/G140R (SIV IN RTV pseudovirus); type: cell-based; conditions: E92Q/G140R SIV integrase mutant
[5] = test system: SIV integrase Q124R (SIV IN RTV pseudovirus); test: organism not typed; type: cell-based; conditions: for EC50: HEK293
[6] = test system: SIV integrase A122T (SIV IN RTV pseudovirus); test: organism not typed; type: cell-based; conditions: for EC50: HEK293
[7] = test system: SIV integrase G118R (SIV IN RTV pseudovirus); type: cell-based; conditions: G118R SIV integrase mutant
[8] = test system: SIV integrase G118R/A122T (SIV IN RTV pseudovirus); type: cell-based; conditions: G118R/A122T SIV integrase mutant
[9] = test system: SIV integrase I72T (SIV IN RTV pseudovirus); test: organism not typed; type: cell-based; conditions: for EC50: HEK293
[10] = test system: SIV integrase I110V (SIV IN RTV pseudovirus); test: organism not typed; type: cell-based; conditions: for EC50: HEK293
[11] = test system: SIV integrase I250V (SIV IN RTV pseudovirus); test: organism not typed; type: cell-based; conditions: for EC50: HEK293
[12] = test system: SIV integrase E92G (SIV IN RTV pseudovirus)
HIV integrase G140S/A/C = conditions: cited from earlier work

## O=C1Nc2ccc(Cl)cc2[C@@](C#CC2CC2)(C(F)(F)F)O1 [EFV, efavirenz]
[1]
  EC50: 0.67 nM
  fold-change relative to wild type integrase: 1 fold
[2]
  fold-change relative to wild type integrase: 0.8 fold
[3]
  EC50: 0.59 nM
  fold-change relative to wild type integrase: 0.9 fold
[4]
  fold-change relative to wild type integrase: 1.9 fold
[5]
  EC50: 0.7 nM
  fold-change relative to wild type integrase: 1.0 fold
[6]
  EC50: 0.77 nM
  fold-change relative to wild type integrase: 1.2 fold
[7]
  fold-change relative to wild type integrase: 1.5 fold
[8]
  fold-change relative to wild type integrase: 1.1 fold
[9]
  EC50: 0.6 nM
  fold-change relative to wild type integrase: 0.9 fold
[10]
  EC50: 0.79 nM
  fold-change relative to wild type integrase: 1.2 fold
[11]
  EC50: 0.67 nM
  fold-change relative to wild type integrase: 1.0 fold
[12]
  EC50: 1.01 nM
  fold-change relative to wild type integrase: 1.5 fold

## C[C@@H]1CCO[C@H]2Cn3cc(C(=O)NCc4ccc(F)cc4F)c(=O)c(O)c3C(=O)N12 [DTG, dolutegravir]
[1]
  EC50: 1 nM
  fold-change relative to wild type integrase: 1 fold
[2]
  fold-change relative to wild type integrase: 1.5 fold
[3]
  EC50: > 1000 nM
  fold-change relative to wild type integrase: >1000 (>1000) fold
[4]
  fold-change relative to wild type integrase: >1000 (>1000) fold
[5]
  EC50: 1.62 nM
  fold-change relative to wild type integrase: 1.6 fold
[6]
  EC50: 1.42 nM
  fold-change relative to wild type integrase: 1.4 fold
[7]
  fold-change relative to wild type integrase: >1000 (>1000) fold
[8]
  fold-change relative to wild type integrase: >1000 (>1000) fold
[9]
  EC50: 1.14 nM
  fold-change relative to wild type integrase: 1.1 fold
[10]
  EC50: 1.52 nM
  fold-change relative to wild type integrase: 1.5 fold
[11]
  EC50: 0.92 nM
  fold-change relative to wild type integrase: 0.9 fold
[12]
  EC50: 2.78 nM
  fold-change relative to wild type integrase: 2.8 fold
HIV integrase G140S/A/C
  fold reduced susceptibility of HIV with G140S/A/C: 10-100 fold

## O=C(NCc1c(F)cc(F)cc1F)c1cn2c(c(O)c1=O)C(=O)N1[C@H]3CC[C@H](C3)O[C@@H]1C2 [BIC, bictegravir]
[1]
  EC50: 1 nM
  fold-change relative to wild type integrase: 1 fold
[2]
  fold-change relative to wild type integrase: 2.0 fold
[3]
  EC50: > 1000 nM
  fold-change relative to wild type integrase: >1000 (>1000) fold
[4]
  fold-change relative to wild type integrase: >1000 (>1000) fold
[5]
  EC50: 1.49 nM
  fold-change relative to wild type integrase: 1.5 fold
[6]
  EC50: 2.1 nM
  fold-change relative to wild type integrase: 2.1 fold
[7]
  fold-change relative to wild type integrase: >1000 (>1000) fold
[8]
  fold-change relative to wild type integrase: >1000 (>1000) fold
[9]
  EC50: 1.51 nM
  fold-change relative to wild type integrase: 1.5 fold
[10]
  EC50: 1.78 nM
  fold-change relative to wild type integrase: 1.8 fold
[11]
  EC50: 1.56 nM
  fold-change relative to wild type integrase: 1.6 fold
[12]
  EC50: 4.29 nM
  fold-change relative to wild type integrase: 4.3 fold

## COc1cc2c(cc1Cc1cccc(Cl)c1F)c(=O)c(C(=O)O)cn2[C@H](CO)C(C)C [EVG, elvitegravir]
[1]
  EC50: 1.24 nM
  fold-change relative to wild type integrase: 1 fold
[2]
  fold-change relative to wild type integrase: 7.8 fold
[3]
  EC50: > 1000 nM
  fold-change relative to wild type integrase: > 807 fold
[4]
  fold-change relative to wild type integrase: > 807 fold
[5]
  EC50: 1.59 nM
  fold-change relative to wild type integrase: 1.3 fold
[6]
  EC50: 1.15 nM
  fold-change relative to wild type integrase: 0.9 fold
[7]
  fold-change relative to wild type integrase: > 807 fold
[8]
  fold-change relative to wild type integrase: > 807 fold
[9]
  EC50: 1.17 nM
  fold-change relative to wild type integrase: 0.9 fold
[10]
  EC50: 1.55 nM
  fold-change relative to wild type integrase: 1.3 fold
[11]
  EC50: 1.45 nM
  fold-change relative to wild type integrase: 1.2 fold
[12]
  EC50: 4.53 nM
  fold-change relative to wild type integrase: 3.7 fold
HIV integrase G140S/A/C
  fold reduced susceptibility of HIV with G140S/A/C: 10-100 fold

## Cc1nnc(C(=O)NC(C)(C)c2nc(C(=O)NCc3ccc(F)cc3)c(O)c(=O)n2C)o1 [RAL, raltegravir]
[1]
  EC50: 2.9 nM
  fold-change relative to wild type integrase: 1 fold
[2]
  fold-change relative to wild type integrase: 3.6 fold
[3]
  EC50: > 1000 nM
  fold-change relative to wild type integrase: > 345 fold
[4]
  fold-change relative to wild type integrase: > 345 fold
[5]
  EC50: 4.6 nM
  fold-change relative to wild type integrase: 1.6 fold
[6]
  EC50: 4.13 nM
  fold-change relative to wild type integrase: 1.4 fold
[7]
  fold-change relative to wild type integrase: > 345 fold
[8]
  fold-change relative to wild type integrase: > 345 fold
[9]
  EC50: 2.73 nM
  fold-change relative to wild type integrase: 0.9 fold
[10]
  EC50: 3.8 nM
  fold-change relative to wild type integrase: 1.3 fold
[11]
  EC50: 4 nM
  fold-change relative to wild type integrase: 1.4 fold
[12]
  EC50: 8.07 nM
  fold-change relative to wild type integrase: 2.8 fold
HIV integrase G140S/A/C
  fold reduced susceptibility of HIV with G140S/A/C: 10-100 fold
